For this experiment, the system named is Staphylococcus aureus ATCC 29213. The experiment can be described thus: Macrodilution MIC test (CLSI). It counts as cell-based. Particulars: for MIC of the antimicrobial not combined: alone. As to the method:
A macrodilution test was performed to determine the MIC for the different combinations, following the recommendations from the CLSI ([47]).
Aloe vera gel extract (1,200 mg/ml) was diluted in Muller-Hinton II (Cation Adjusted) Broth (MHBCA) from BD® (Franklin Lakes, NJ, USA) up to a range of concentrations from 150 to 1,200 mg/ml. In addition, the standard solutions of cloxacillin and ceftiofur were diluted in MHBCA to prepare 2-fold serial dilutions at a concentrations range of 0.015–128 μg/ml.
Staphylococcus aureus ATCC 29213 (KWIK-STIK) was sourced from Microbiologics® (St. Cloud, MN, USA) and used to test the MIC for the different combinations of Aloe vera and cloxacillin or ceftiofur. First, S. aureus was rehydrated with Trypticase™ Soy Broth from BD® (Franklin Lakes, NJ, USA). Then, these bacteria were cultured in the Trypticase™ Soy Broth from BD® (Franklin Lakes, NJ, USA) with 5% sheep defibrinated blood (Franklin Lakes, NJ, USA) at an incubation temperature of 36 ± 1°C for 24 h. Once incubation ended, bacteria were preserved at −80°C using cryobank vials, while waiting for further processing. […] These cultured bacteria were then suspended in MHBCA from BD® (Franklin Lakes, NJ, USA), and the optical density was adjusted according to the McFarland Standard Solution to standardize the number of bacteria. From this broth, dilutions containing 5 × 10^5 UFC/ml were incubated along with dilutions of a combination of Aloe vera extract and antimicrobials. […] Additionally, S. aureus bacteria were incubated separately, in different tubes, with the extract, cloxacillin, and ceftiofur dilutions.

For `CO/N=C(\C(=O)N[C@@H]1C(=O)N2C(C(=O)O)=C(CSC(=O)c3ccco3)CS[C@H]12)c1csc(N)n1` [ceftiofur], the “MIC of the antimicrobial not combined” value is 0.25 µg/mL. On the same count and under the same terms, the value for `Cc1onc(-c2ccccc2Cl)c1C(=O)N[C@@H]1C(=O)N2[C@@H]1SC(C)(C)[C@@H]2C(=O)O` [cloxacillin] was 0.25 µg/mL. Turning to `O=C1c2c(O)cccc2C([C@@H]2O[C@H](CO)[C@@H](O)[C@H](O)[C@H]2O)c2cc(CO)cc(O)c21` (stereo partly drawn) [aloin], the minimum inhibitory concentration (MIC) (commonly the lowest concentration found to suppress growth) (Staphylococcus aureus, ATCC29213, calculated from the MIC of Aloe vera in the combination and the concentration of aloin A + aloin B in the extract) is 0.00366 µg/mL.

Values taken from PMC8019741, “Efficacy Prediction of Four Pharmaceutical Formulations for Intramammary Administration Containing Aloe vera (L.) Burm. f. Combined With Ceftiofur or Cloxacillin in Lactating Cows as an Alternative Therapy to Treat Mastitis Caused by Staphylococcus aureus” (Frontiers in Veterinary Science, 2021).
